Measured values taken from article PMC6656724 (Communications Biology, 2019).

What was measured:
[1] = Stability in rat hepatocytes
Method: Rat hepatocyte compound stability assays were performed using cryopreserved vials of rat cryopreserved hepatocytes (Life Technologies), which were thawed according to manufacturer’s instructions and resuspended in Williams Medium E (WME) containing cell maintenance supplement pack (CM4000, Life
Technologies). Hepatocytes were incubated in suspension (0.5 million cells/mL) in 48 well non-collagen coated cell culture plates for 10 minutes at 37 °C, 5%
CO2. Upon addition of an equal volume of supplemented WME containing 1 mM test compound, an aliquot of incubation solution was removed to acetonitrile containing internal standard (final concentration 0.5 mM test compound and a cell density of 0.25 million cells/mL). Similarly, aliquots were removed at 3,6,9,15,30,45,60,90 and
100 mL of 80:20 water:acetonitrile was added to all samples and the analysis plate was centrifuged for 10 minutes at room temperature prior to injection and analysis of samples by UPLC-MS/MS using a Xevo TQs micro (Waters corporation, USA). XLfit (IDBS, UK) was used to calculate the exponential decay and consequently the rate constant (k) from the ratio of peak area of test compound to internal standard at each timepoint. The rate of intrinsic clearance (CLi) was then
1.10 Rat hepatocyte stability […]
internal standard at each timepoint. The calculated hepatocyte intrinsic clearance […]

PfKMO [2] = biological target: T1, PfKMO (Pseudomonas fluorescens, UniProt Q84HF5, C252S/C461S); test: biochemical
T1 construct: made in house; host or cells: E. coli BL21 (DE3)
Method: saturating concentrations of the L-KYN and NADPH substrates. Data are plotted […]
consumption of NADPH at 340 nm upon addition of enzyme via a Cary 50 UV-Vis spectrophotometer (Agilent Technologies). Rates were determined from linear regression fits to the initial linear portion of the curves. All measurements were performed in triplicate. The IC50 values for inhibitors were obtained by plotting the percentage inhibition versus the inhibitor concentration and fitting to the Morrison equation16 (equation 1) using Origin 9.0 Software (OriginLab, Northampton, MA).
E + I + K!"" − E + I + K!"" ! − 4[E][I] where v0 is the enzyme activity without inhibitor, vi is the enzyme activity with ligand concentration [I], [E] is the enzyme concentration, [I] is the inhibitor concentration, K!"" is the apparent inhibition constant and IC = K!"" + [!] . If K!"" ≫ [!], IC ≈ […]
where Ki is the inhibition constant, [S] is the substrate concentration used in the assay and Km is the Michaelis-Menten constant17. […]
between Ki and Ki apparent values, as the conditions for measuring IC50 are different, Ki values can be used to compare with other reported KMO inhibitors.
Steady-state kinetic parameters for PfKMO were calculated by measuring initial rates […]
the observed rate of turnover (v) versus the varied substrate concentration were fitted to equation 2 using Origin 9.0 Software (OriginLab, Northampton, MA).
A B + K!! B + K!! A + K!!K!! where v is the initial rate of activity, Vmax is the maximum velocitie of the reaction, [A] and [B] are the substrate concentration, K!! and K!! are the Michaelis-Menten constant for different substrate and K!! is the inhibition (binding) constant of substrate A to the free enzyme while forming transitory complexes.18
Product inhibition studies were carried out by measuring reaction rates at varying […]
one substrate and varying concentrations of the other substrate. Inhibition studies with target compounds were carried out by measuring reaction rates at varying inhibitor concentrations at saturating concentrations of one substrate and varying concentrations of the other substrate. […]
were used to distinguish between different types of inhibition. The data were fitted to a straight line defined by the Lineweaver-Burke equation (equation 4), with the y intercept providing 1/Vmax and the x intercept giving -1/Km. […]

PfKMO [3] = biological target: T1, PfKMO; test: Stopped-flow reduction of flavin cofactor by NADPH; format: biochemical; conditions: for Reduction rate of flavin cofactor: PfKMO with saturating ligand, 2 mM NADPH, 25 °C, anaerobic
Method: The reduction rate of the flavin cofactor by NADPH was measured using a stopped-flow spectrophotometer (Applied Photophysics Ltd), which was housed in an anaerobic glovebox (Belle Technology). […] The reduction of the flavin was monitored by the decrease in the absorbance of the flavin at 450 nm and transients were fitted to either double or triple exponentials.
Supplementary Figure 13. Reduction of flavin cofactor by NADPH in the presence and absence of ligands. Anaerobic mixtures of 10 µM PfKMO with or without ligand were mixed against anaerobic 2 mM NADPH on a stopped-flow spectrophotometer at 25℃. a, 10 µM PfKMO mixed with 2 mM NADPH; b, 10 µM

T1 sequence (Q84HF5 whole entry C252S/C461S): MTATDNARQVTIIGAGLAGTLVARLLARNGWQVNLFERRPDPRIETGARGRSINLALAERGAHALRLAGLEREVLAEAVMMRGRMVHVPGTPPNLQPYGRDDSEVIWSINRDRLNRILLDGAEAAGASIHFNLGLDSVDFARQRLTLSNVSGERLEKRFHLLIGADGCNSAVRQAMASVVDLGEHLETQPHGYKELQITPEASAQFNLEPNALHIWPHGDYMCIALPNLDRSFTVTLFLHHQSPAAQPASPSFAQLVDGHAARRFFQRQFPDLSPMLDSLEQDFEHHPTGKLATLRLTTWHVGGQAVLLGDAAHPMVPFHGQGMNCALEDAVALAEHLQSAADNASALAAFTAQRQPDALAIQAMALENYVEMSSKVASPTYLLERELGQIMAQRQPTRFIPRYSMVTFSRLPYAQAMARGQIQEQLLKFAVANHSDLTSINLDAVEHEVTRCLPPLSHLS

With `CCOC(=O)CN1C(=O)COc2cc(C)c(Cl)c(C)c21` [1b] as the compound, how does the Mean intrinsic clearance [1] read?
Its Mean intrinsic clearance is over 50 mL/min/g liver.

For `Cc1cc2c(c(C)c1Cl)N(CC(=O)O)C(=O)CO2` [compound 1, (6-chloro-5,7-dimethyl-3-oxo-2,3-dihydro-4H-1,4-benzoxazin-4-yl) acetic acid], which “Mechanism of inhibition with respect to L-KYN” value (PfKMO [2]; PfKMO) is on record?
The value was “competitive inhibitor”.

And the “Mechanism of inhibition with respect to NADPH” value (PfKMO [2]; PfKMO)?
Its value is “mixed type inhibitors”.

And the “Reduction rate of flavin cofactor” value (PfKMO [3])?
Its value is 0.13 ± 0.005 s⁻¹.

What about the “Stimulation of KMO reduction by NADPH” value (PfKMO [3]; rapid mixing stopped-flow assays) of the same compound?
Its value is “do not stimulate”.

And the Mean intrinsic clearance [1]?
The Mean intrinsic clearance was 0.8 mL/min/g liver.

Which Ki (PfKMO [2]) does the source give for `Cc1cc2c(c(C)c1Cl)N(Cc1nn[nH]n1)C(=O)CO2` [1h, 6-chloro-5,7-dimethyl-4-(2H-tetrazol-5-ylmethyl)-1,4-benzoxazin-3-one] here?
Its Ki is 1060 ± 40 nM.

What about the “Reduction rate of flavin cofactor” value (PfKMO [3]) of the same compound?
Its value is 0.09 ± 0.001 s⁻¹.
